In patent publication US11470844B2, “Vespidae wasp repellent” (KINP CO., LTD, priority 2015, dated 2022):

Assays:
Vespa mandarinia worker [1] = assay: Spray on Vespa mandarinia worker collecting sawthorn oak sap; format: in vivo, Vespa mandarinia japonica Radoszkowski; details: 10 workers; for behavior of workers after spraying: immediately started flapping, same time or a few seconds later; for Number of worker Effective / Number of worker No response: sprayed one time, observed up to 1 minute
Description: The experiment was conducted on a Vespa mandarinia japonica Radoszkowski worker which flew to a sawthorn oak tree bleeding sap and which collected the sap in Kagawa Prefecture Kinbuchi Forest Park in Takamatsu City Kagawa Prefecture from June to October, 2014 and from June to July, 2015.
Specifically, 100 mL of distilled water was enclosed in a plastic sprayer having a volume of 200 mL to be used as a control sprayer, and 100 mL of benzyl alcohol was enclosed in the same material and the same volume sprayer to be used as a test liquid sprayer. First, distilled water was sprayed one time to one Vespa mandarinia worker which was collecting sap at a sap bleeding part of a trunk of a sawthorn oak tree by using a control sprayer. […] Then, benzyl alcohol was sprayed one time by using a test liquid sprayer. Next, the workers were observed up to 1 minute. With respect to 2-phenylethanol, 3-phenylpropanol, 1-phenyl-2-prpanol and benzyl acetate, the spray test to a Vespa mandarinia worker collecting a sawthorn oak sap was conducted in the same condition.

Vespa mandarinia worker [2] = assay: Black ball nest disturbance, Experiment 2 (new black ball, 30 s vibration); format: in vivo; details: for repellent effect: in vivo
From the text: In the above-described Experiment 1, it was observed that vibrating the black ball in contact with the nest entrance more strongly induces the attack behavior of the worker rather than vibrating the black ball in the air away from the nest. Accordingly, the attack situation of the worker was investigated by vibrating the black ball in contact with the entrance of the same Vespidae wasp nest used in the above-described Experiment 1 for 30 seconds on Oct. 31, 2014. Specifically, the attack situation of the worker was observed similarly to the above-described Experiment 1 except for using a new black ball without using the black ball on which alarm pheromone was adsorbed even in the case of the test liquid and using 2-phenylethanol or benzyl alcohol as the test liquid by vibrating the black ball in contact with the entrance of the same nest for 30 seconds.
As a result, in the case of the black ball on which distilled water was sprayed, it was difficult to count the total number of the workers which flew to and alighted on the black ball for attack, since the black ball was continued to be attacked by the workers for 150 seconds from the end of the vibration almost without interruption and the number of attacking worker was clearly larger in comparison with the case of the above-described Experiment 1. The inventors therefore counted the number of the worker which could be observed on the hemispherical surface of the black ball from the video image at intervals of 30 seconds from the end of the disturbance. In addition, a picture of the video footage 145 seconds after the end of the nest entrance disturbance is shown as FIG. 1. FIG. 1A is an image of the case where distilled water was used, FIG. 1B is an image of the case where 2-phenylethanol was used, and FIG. 1C is an image of the case where benzyl alcohol was used.

[3] = test system: Vespa simillima xanthoptera worker; assay: Black ball nest disturbance, Experiment 2; format: in vivo; details: for number of worker on black ball hemispherical surface: new black ball; for repellent effect and action to suppress the aggression: in vivo
Description: A similar experiment to the above-described Example 2(2) was conducted against the same Vespa simillima xanthoptera nest of the above-described Experiment 1 on Oct. 31, 2014. The number of worker on the black spherical hemispherical surface counted every 30 seconds on the basis of the video image is shown in Table 5, and the picture of the video footage after 115 seconds is shown as FIG. 2. FIG. 2A is an image of the case where distilled water was used, FIG. 2B is an image of the case where 2-phenylethanol was used, and FIG. 2C is an image of the case where benzyl alcohol was used.

Apis mellifera worker = details: in vivo
Description: The experiment involving a Apis mellifera worker which was sucking nectar from a flower of Abelia planted at a bank of Noda pond located at Fuseishi-cho, Takamatsu City, Kagawa Prefecture was conducted on Jul. 22 to 24, 2015.
With respect to the experimental condition, first, distilled water was sprayed once on the worker which was sucking nectar or moving from a flower to a flower by using a sprayer, and then the inventors observed the behavior for 30 seconds. Next, benzyl alcohol, 2-phenylethanol or benzyl acetate was sprayed once on the same worker by using the sprayer having the same mass and the same volume, and then the inventors observed the behavior up to 30 seconds. The test liquid was judged to be “effective” in the case where the Apis mellifera worker on which the test liquid was sprayed did different action than normal activity to visit a flower during the observation time.

[4] = test system: Vespa analis insularis (Fabricius) worker; assay: Black ball nest disturbance, Experiment 1; format: in vivo
Description: The experiment was conducted with utilizing a nest of Vespa analis insularis (Fabricius) built under an awning of a private house in Iida-cho Takamatsu City on Sep. 9, 2015.
A black ball was hung on the tip of a fishing rod having a length of 11 m, and distilled water was sprayed on the entire surface of the black ball. While the surface of the nest was tapped with the tip of the fishing rod once every about 10 seconds, the worker's action against the black ball was taken and recorded with a video camera for 5 minutes. When the nest was hit, the black ball was in close proximity to the nest as the black ball was about to touch the nest, and when the nest was not hit, the black ball was kept still in the air about 50 cm away from the nest surface. The thus recorded video footage was replayed, and the number of worker which flew to and alighted on the hemisphere surface of the black ball for attack was counted. Similar experiments were conducted with respect to the black ball prepared by spraying benzyl alcohol on the entire surface of a new black ball as “Test liquid example 1” and the black ball prepared by spraying benzyl alcohol on the entire surface of the control example black ball on which alarm pheromone was adsorbed by the worker's attack as “Test liquid example 2”. In addition, a picture of the video footage 234 seconds after the start of the nest disturbance is shown as FIG. 3. FIG. 3A is an image of the control example that distilled water was used, FIG. 3B is an image of the Test liquid example 1, and FIG. 3C is an image of the Test liquid example 2.

Structure (SMILES): OCCc1ccccc1 [2-Phenylethanol, 2-phenylethanol]
- behavior of workers after spraying (Vespa mandarinia worker [1]): flew away from the sap bleeding part
- Number of worker Effective (Vespa mandarinia worker [1]): 10/10
- Number of worker No response (Vespa mandarinia worker [1]): 0/10
- number of worker on hemispherical surface of black ball (Vespa mandarinia worker [2]; 30 s after disturbance): 0
- number of worker on hemispherical surface of black ball (Vespa mandarinia worker [2]; 60 s after disturbance): 0
- number of worker on hemispherical surface of black ball (Vespa mandarinia worker [2]; 90 s after disturbance): 0
- number of worker on hemispherical surface of black ball (Vespa mandarinia worker [2]; 120 s after disturbance): 0
- number of worker on hemispherical surface of black ball (Vespa mandarinia worker [2]; 150 s after disturbance): 0
- repellent effect (Vespa mandarinia worker [2]): very strong
- number of worker on black ball hemispherical surface ([3]; 30 s after disturbance): 1
- number of worker on black ball hemispherical surface ([3]; 60 s after disturbance): 0
- number of worker on black ball hemispherical surface ([3]; 90 s after disturbance): 0
- number of worker on black ball hemispherical surface ([3]; 120 s after disturbance): 0
- number of worker on black ball hemispherical surface ([3]; 150 s after disturbance): 0
- repellent effect and action to suppress the aggression [3]: strong equivalent to or higher than the repellent effect on Vespa mandarinia
- Number of worker Effective (Apis mellifera worker): 0/10
- Number of worker No response (Apis mellifera worker): 10/10

Structure (SMILES): OCc1ccccc1 [Benzyl alcohol, benzyl alcohol]
- behavior of workers after spraying (Vespa mandarinia worker [1]): flew away from the sap bleeding part
- Number of worker Effective (Vespa mandarinia worker [1]): 10/10
- Number of worker No response (Vespa mandarinia worker [1]): 0/10
- number of worker on hemispherical surface of black ball (Vespa mandarinia worker [2]; 30 s after disturbance): 0
- number of worker on hemispherical surface of black ball (Vespa mandarinia worker [2]; 60 s after disturbance): 0
- number of worker on hemispherical surface of black ball (Vespa mandarinia worker [2]; 90 s after disturbance): 0
- number of worker on hemispherical surface of black ball (Vespa mandarinia worker [2]; 120 s after disturbance): 0
- number of worker on hemispherical surface of black ball (Vespa mandarinia worker [2]; 150 s after disturbance): 0
- repellent effect (Vespa mandarinia worker [2]): very strong
- number of worker on black ball hemispherical surface ([3]; 30 s after disturbance): 0
- number of worker on black ball hemispherical surface ([3]; 60 s after disturbance): 0
- number of worker on black ball hemispherical surface ([3]; 90 s after disturbance): 0
- number of worker on black ball hemispherical surface ([3]; 120 s after disturbance): 0
- number of worker on black ball hemispherical surface ([3]; 150 s after disturbance): 0
- repellent effect and action to suppress the aggression [3]: strong equivalent to or higher than the repellent effect on Vespa mandarinia
- number of worker alighted on hemisphere surface of black ball for attack ([4]; 30 s, benzyl alcohol on ball with adsorbed alarm pheromone): 0
- number of worker alighted on hemisphere surface of black ball for attack ([4]; 30 s, benzyl alcohol on new black ball): 0
- number of worker alighted on hemisphere surface of black ball for attack ([4]; 60 s, benzyl alcohol on ball with adsorbed alarm pheromone): 1
- number of worker alighted on hemisphere surface of black ball for attack ([4]; 60 s, benzyl alcohol on new black ball): 0
- number of worker alighted on hemisphere surface of black ball for attack ([4]; 90 s, benzyl alcohol on ball with adsorbed alarm pheromone): 0
- number of worker alighted on hemisphere surface of black ball for attack ([4]; 90 s, benzyl alcohol on new black ball): 2
- number of worker alighted on hemisphere surface of black ball for attack ([4]; 120 s, benzyl alcohol on ball with adsorbed alarm pheromone): 0
- number of worker alighted on hemisphere surface of black ball for attack ([4]; 120 s, benzyl alcohol on new black ball): 1
- number of worker alighted on hemisphere surface of black ball for attack ([4]; 150 s, benzyl alcohol on ball with adsorbed alarm pheromone): 0
- number of worker alighted on hemisphere surface of black ball for attack ([4]; 150 s, benzyl alcohol on new black ball): 0
- number of worker alighted on hemisphere surface of black ball for attack ([4]; 180 s, benzyl alcohol on ball with adsorbed alarm pheromone): 0
- number of worker alighted on hemisphere surface of black ball for attack ([4]; 180 s, benzyl alcohol on new black ball): 0
- number of worker alighted on hemisphere surface of black ball for attack ([4]; 210 s, benzyl alcohol on ball with adsorbed alarm pheromone): 0
- number of worker alighted on hemisphere surface of black ball for attack ([4]; 210 s, benzyl alcohol on new black ball): 0
- number of worker alighted on hemisphere surface of black ball for attack ([4]; 240 s, benzyl alcohol on ball with adsorbed alarm pheromone): 0
- number of worker alighted on hemisphere surface of black ball for attack ([4]; 240 s, benzyl alcohol on new black ball): 0
- number of worker alighted on hemisphere surface of black ball for attack ([4]; 270 s, benzyl alcohol on ball with adsorbed alarm pheromone): 0
- number of worker alighted on hemisphere surface of black ball for attack ([4]; 270 s, benzyl alcohol on new black ball): 0
- number of worker alighted on hemisphere surface of black ball for attack ([4]; 300 s, benzyl alcohol on ball with adsorbed alarm pheromone): 0
- number of worker alighted on hemisphere surface of black ball for attack ([4]; 300 s, benzyl alcohol on new black ball): 0
- repellent effect ([4]; in vivo): strong repellent effect
- Number of worker Effective (Apis mellifera worker): 0/10
- Number of worker No response (Apis mellifera worker): 10/10
- effect on behavior of / harm to honeybee (Apis mellifera worker): does not effect on the behavior of an Apis mellifera worker
